# From patent publication US8227489B2, “N-(aminoheteroaryl)-1H-indole-2-carboxamide derivatives, preparation thereof and therapeutic use thereof” (Sanofi-Aventis, priority 2006, dated 2012)
# Counter-ions that a name gives are not always drawn.
# Key:
# TRPV1 receptor = target: T1, TRPV1 receptor (Rattus norvegicus, UniProt O35433); assay: Inhibition of the current induced by capsaicin with regard to rat DRGs (whole cell patch clamp); assay type: cell-based; details: DRG neuron, capsaicin 1 microM response, rat DRG neurons, read-out: % Inhibition by the DRG patch technique; for inhibition at 0.01 µM: compound at 10 nM; for inhibition at 0.001 µM: compound at 1 nM
# T1 construct: The neurons of the DRG naturally express the TRPV1 receptor; endogenous in cells; host or cells: primary culture of newborn rat dorsal root ganglion neurons
# Protocol: Test of the Inhibition of the Current Induced by Capsaicin with Regard to Rat DRGs
# • Primary culture of rat dorsal root ganglion (DRG) cells:
# The neurons of the DRG naturally express the TRPV1 receptor.
# Primary cultures of DRGs of newborn rats are prepared from one-day-old rats. Briefly, after dissection, the ganglions are trypsinized and the cells dissociated mechanically by gentle trituration. The cells are resuspended in an Eagle's basal culture medium comprising 10% of fetal calf serum, 25 mM KCl, 2 mM glutamine, 100 μg/ml of gentamicin and 50 ng/ml of NGF and then deposited on glass cover slips covered with laminin (0.25×10^6 cells per cover slip) which are subsequently placed in 12-well Corning dishes. The cells are incubated at 37° C. in a humidified atmosphere comprising 5% of CO2 and 95% of air. Cytosine β-D-arabinoside (1 μM) is added 48 h after culturing, in order to prevent the growth of non-neuronal cells. After culturing for 7-10 days, the cover slips are transferred into experimental chambers for the patch clamp studies.
# The measurement chambers (volume 800 μl) comprising the cell preparation are placed on the stage of an inverted microscope (Olympus IMT2) equipped with Hoffman optics (Modulation Contrast, New York) and are observed at a magnification of 400×. The chambers are continuously perfused by gravity (2.5 ml/min) using a distributor of solutions which has 8 inlets, the single outlet of which, composed of a polyethylene tube (opening 500 μm), is placed at least 3 mm from the cell studied. The “whole cell” configuration of the patch clamp technique was used. Borosilicate glass pipettes (resistance 5-10 Mohms) are brought close to the cell using a 3D piezoelectric micromanipulator (Burleigh, PC1000). The overall currents (membrane potential set at −60 mV) are recorded with an Axopatch 1D amplifier (Axon Instruments, Foster City, Calif.) connected to a PC controlled by Pclamp8 software (Axon Instruments). The current plots are recorded on paper and simultaneously recorded digitally (sampling frequency 15 to 25 Hz) and acquired on the hard disk of the PC.
# The application of a micromolar capsaicin solution produces an incoming cationic current with regard to the DRG cells (voltage set at […]). In order to minimize the desensitization of the receptors, a minimum interval of one minute between two applications of capsaicin is observed. After a control period (stabilization of the capsaicin alone response), the test compounds are applied alone at a given concentration (concentration of 10 nM or […]) for a period of time of 4 to 5 minutes, during which several capsaicin+compound tests are carried out (obtaining the maximum inhibition). The results are expressed as % of inhibition of the control capsaicin response.
# TRPV1 receptors = target: T2, TRPV1 receptors (Mus musculus, UniProt Q704Y3); assay: Mouse corneal irritation test (capsaicin-induced); assay type: in vivo; details: compound 500 μM, 2 μl local application on cornea 10 minutes before 160 μM capsaicin
# T2 construct: from tissue; host or cells: cornea of the living mouse (in vivo)
# Protocol: Mouse Corneal Irritation Test
# The irritating nature of capsaicin is easily assessed on the cornea since this organ is one of the most innervated by C fibers. In this context, according to preliminary experiments, the application of a very small amount of capsaicin (2 μl at a concentration of 160 μM) at the surface of the cornea of an animal results in a number of kinds of stereotyped behavior related to irritation which are easy to record. These include: blinking of the eye, rubbing of the instilled eye by the ipsilateral front paw, rubbing of the face with the two front paws and scratching of the ipsilateral face by the hind paw. […] Its appearance is furthermore also normal. […] It may be concluded therefrom that the duration of action of capsaicin at these doses is less than 2 minutes.
# Summary of the Methodology: […]
# In practice, the test product, prepared at 25 mM in DMSO and diluted for its final use in physiological saline with 10% Tween 80 to the stronger concentration of 500 μM, is administered in local application at the surface of the cornea under a volume of 2 μl, 10 minutes before the application of the capsaicin. […] During observation for 2 minutes following the instillation, the number of rubbing actions on the instilled eye by the ipsilateral front paw is counted for each animal.
# For a given group, the percentage of protection is calculated as follows: […]
# T1 sequence (O35433 whole entry): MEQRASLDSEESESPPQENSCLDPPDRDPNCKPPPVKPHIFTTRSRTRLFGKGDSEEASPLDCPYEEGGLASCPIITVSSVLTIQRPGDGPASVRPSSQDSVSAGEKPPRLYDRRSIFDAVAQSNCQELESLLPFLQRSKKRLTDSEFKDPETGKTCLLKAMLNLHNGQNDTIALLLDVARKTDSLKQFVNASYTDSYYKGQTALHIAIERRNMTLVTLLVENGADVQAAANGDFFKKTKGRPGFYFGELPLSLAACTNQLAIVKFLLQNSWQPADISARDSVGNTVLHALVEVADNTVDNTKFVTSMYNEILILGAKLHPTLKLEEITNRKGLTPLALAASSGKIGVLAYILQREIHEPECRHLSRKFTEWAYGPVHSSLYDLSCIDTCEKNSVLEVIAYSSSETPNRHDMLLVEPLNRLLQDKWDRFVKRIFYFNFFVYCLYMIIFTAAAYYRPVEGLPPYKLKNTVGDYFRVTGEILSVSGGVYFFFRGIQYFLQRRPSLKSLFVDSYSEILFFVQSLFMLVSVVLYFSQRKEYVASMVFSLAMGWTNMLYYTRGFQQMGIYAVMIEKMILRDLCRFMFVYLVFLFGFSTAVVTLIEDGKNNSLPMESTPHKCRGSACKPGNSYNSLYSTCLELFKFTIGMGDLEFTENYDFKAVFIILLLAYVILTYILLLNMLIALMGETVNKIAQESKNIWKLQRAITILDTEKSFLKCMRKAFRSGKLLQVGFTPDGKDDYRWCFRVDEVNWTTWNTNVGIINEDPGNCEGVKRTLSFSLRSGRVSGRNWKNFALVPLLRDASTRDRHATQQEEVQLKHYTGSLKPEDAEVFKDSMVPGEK
# T2 sequence (Q704Y3 whole entry): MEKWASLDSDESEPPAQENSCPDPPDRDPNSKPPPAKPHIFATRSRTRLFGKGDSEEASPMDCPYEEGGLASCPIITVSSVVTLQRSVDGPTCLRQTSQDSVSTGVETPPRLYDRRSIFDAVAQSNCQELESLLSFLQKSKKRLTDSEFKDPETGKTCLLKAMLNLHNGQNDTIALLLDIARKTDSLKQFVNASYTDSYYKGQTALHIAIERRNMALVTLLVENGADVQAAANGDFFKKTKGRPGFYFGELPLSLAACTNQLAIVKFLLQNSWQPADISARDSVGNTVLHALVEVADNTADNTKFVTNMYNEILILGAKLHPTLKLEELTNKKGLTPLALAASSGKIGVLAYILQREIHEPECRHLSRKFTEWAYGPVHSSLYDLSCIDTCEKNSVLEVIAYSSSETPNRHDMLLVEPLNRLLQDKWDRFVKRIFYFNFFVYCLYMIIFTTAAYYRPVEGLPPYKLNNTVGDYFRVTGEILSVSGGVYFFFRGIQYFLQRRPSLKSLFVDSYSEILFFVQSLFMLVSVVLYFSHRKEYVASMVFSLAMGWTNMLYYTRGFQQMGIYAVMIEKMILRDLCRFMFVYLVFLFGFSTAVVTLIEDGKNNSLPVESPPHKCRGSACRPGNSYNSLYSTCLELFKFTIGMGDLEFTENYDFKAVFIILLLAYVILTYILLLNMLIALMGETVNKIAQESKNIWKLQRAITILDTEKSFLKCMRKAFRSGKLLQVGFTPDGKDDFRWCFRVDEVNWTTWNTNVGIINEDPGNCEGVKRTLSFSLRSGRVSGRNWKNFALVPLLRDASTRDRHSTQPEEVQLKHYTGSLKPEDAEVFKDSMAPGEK
Structure (SMILES),melting point,other results
CN(C)C1=CNN(NC(=O)c2cc3ccc(C(F)(F)F)cc3n2Cc2cccc(F)c2)C=C1,255 to 267 °C,–
CNc1ccc(NC(=O)c2cc3cc(F)ccc3n2Cc2cccc(F)c2)c(C)n1,229 to 230 °C,–
"Cc1cc(NC(=O)c2cc3cc(F)ccc3n2Cc2ccncc2)cnc1N(C)C [Compound 19, N-[6-dimethylamino-5-methylpyridin-3-yl]-5-fluoro-1-(pyridin-4-ylmethyl)-1H-indole-2-carboxamide]",164 to 165 °C,inhibition at 0.01 µM (TRPV1 receptor): 33%
CN(C)C1=CNN(NC(=O)c2cc3cc(F)ccc3n2Cc2cccc(F)c2)C=C1 (as salt: hydrochloride),239 to 241 °C,–
"CNc1ccc(NC(=O)c2cc3cc(F)ccc3n2Cc2cccc(F)c2)cn1 [Compound 1, N-[6-(methylamino)pyridin-3-yl]-5-fluoro-1-(3-fluorobenzyl)-1H-indole-2-carboxamide]",225 to 227 °C,% P (percentage of protection) (TRPV1 receptors): 23%; inhibition at 0.001 µM (TRPV1 receptor): 53%
Cc1cc(N(C)C)ncc1NC(=O)c1cc2cc(F)ccc2n1Cc1cccc(F)c1,183 to 185 °C,–
CN(C)c1ccc(NC(=O)c2cc3cc(F)ccc3n2Cc2cccc(F)c2)cn1.Cl,232 to 234 °C,–
CN(C)c1ncc(NC(=O)c2cc3cc(F)ccc3n2Cc2cccc(F)c2)cc1C(F)(F)F,142 to 143 °C,–
CC(=O)Nc1ccc(NC(=O)c2cc3ccc(C(F)(F)F)cc3n2Cc2cccc(F)c2)cn1,293 to 295 °C,–
CN(C)C1=CNN(NC(=O)c2cc3cc(C(F)(F)F)ccc3n2Cc2cccc(F)c2)C=C1,138 to 139 °C,–
"Cc1cc(N(C)C)ncc1NC(=O)c1cc2cc(F)ccc2n1Cc1ccncc1 [Compound 17, N-[6-dimethylamino-4-methylpyridin-3-yl]-5-fluoro-1-(pyridin-4-ylmethyl)-1H-indole-2-carboxamide]",217 to 219 °C,inhibition at 0.01 µM (TRPV1 receptor): 60%
CNc1cc(C)c(NC(=O)c2cc3cc(F)ccc3n2Cc2cccc(F)c2)cn1,215 to 217 °C,–
CN(C)C1=CNN(NC(=O)c2cc3cc(C(F)(F)F)ccc3n2Cc2ccncc2)C=C1.Cl,268 to 272 °C,–
CN(C)c1ncc(NC(=O)c2cc3cc(F)ccc3n2Cc2cccc(F)c2)cc1F,158 to 159 °C,–
"CN(C)c1ccc(NC(=O)c2cc3cc(C(F)(F)F)ccc3n2Cc2cccc(F)c2)cn1 [Compound 12, N-[6-(dimethylamino)pyridin-3-yl]-5-trifluoromethyl-1-(3-fluorobenzyl)-1H-indole-2-carboxamide]",–,inhibition at 0.001 µM (TRPV1 receptor): 100%
CNc1cc(C)c(NC(=O)c2cc3cc(F)ccc3n2Cc2ccncc2)cn1,218 to 220 °C,–
CNc1ccc(NC(=O)c2cc3cc(F)ccc3n2Cc2ccncc2)cn1,220 to 222 °C,–
CC(=O)Nc1ccc(NC(=O)c2cc3cc(F)ccc3n2Cc2cccc(F)c2)cn1,252 to 254 °C,–
Cc1cc(NC(=O)c2cc3cc(F)ccc3n2Cc2cccc(F)c2)cnc1N(C)C,145 to 146 °C,–
